Patent publication US8952024B2, “Herbicidal pyrimidone derivatives” (E I du Pont de Nemours and Company, priority 2009, dated 2015)

Key:
Format in all cases: in vivo
[1] = tested on: chickweed (Stellaria media); experiment: Test B postemergence plant response; settings: for Chickweed plant response rating (0 to 100 scale): 62 g ai/ha, 0 is no effect, 13 to 15 days
Method in brief: (§1)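 Visual ratings from 0 (no effect) to 100 (complete control), made against controls 13–15 days after treatment, kept in a greenhouse. Compounds were applied postemergence to potted plants at the 1- to 4-leaf stage (2–18 cm).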

[2] = tested on: windgrass (Apera spica-venti); experiment: Test B postemergence plant response; settings: for Windgrass plant response rating (0 to 100 scale): 62 g ai/ha, 0 is no effect, 13 to 15 days
Method in brief: as §1

[3] = tested on: canarygrass (Phalaris minor); experiment: Test B postemergence plant response; settings: for Canarygrass plant response rating (0 to 100 scale): 62 g ai/ha, 0 is no effect, 13 to 15 days
Method in brief: as §1

[4] = tested on: giant foxtail (Setaria faberii); experiment: Test B pre-/postemergence plant response; settings: for Foxtail, Giant plant response rating (0 to 100 scale): 62 g ai/ha, 0 is no effect, 13 to 15 days
Method in brief: (§2)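 Seeds sown in loam–sand blend were treated preemergence, and plants at 2–18 cm (1- to 4-leaf stage) in peat-based medium were treated postemergence; compounds were formulated in non-phytotoxic solvent with surfactant. After 13–15 days in greenhouse, response was visually rated against controls, 0 (no effect) to 100 (complete control).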

[5] = tested on: cocklebur (Xanthium strumarium); experiment: Test B pre-/postemergence plant response; settings: for Cocklebur plant response rating (0 to 100 scale): 62 g ai/ha, 0 is no effect, 13 to 15 days
Method in brief: as §2

[6] = tested on: soybean (Glycine max); experiment: Test B pre-/postemergence plant response; settings: for Soybean plant response rating (0 to 100 scale): 62 g ai/ha, 0 is no effect, 13 to 15 days
Method in brief: as §2

[7] = tested on: velvetleaf (Abutilon theophrasti); experiment: Test B pre-/postemergence plant response; settings: for Velvetleaf plant response rating (0 to 100 scale): 62 g ai/ha, 0 is no effect, 13 to 15 days
Method in brief: as §2

[8] = tested on: morningglory (Ipomoea coccinea); experiment: Test B pre-/postemergence plant response; settings: for Morningglory plant response rating (0 to 100 scale): 62 g ai/ha, 0 is no effect, 13 to 15 days
Method in brief: as §2

[9] = tested on: johnsongrass (Sorghum halepense); experiment: Test B pre-/postemergence plant response; settings: for Johnsongrass plant response rating (0 to 100 scale): 62 g ai/ha, 0 is no effect, 13 to 15 days
Method in brief: as §2

[10] = tested on: blackgrass (Alopecurus myosuroides); experiment: Test B pre-/postemergence plant response; settings: for Blackgrass plant response rating (0 to 100 scale): 62 g ai/ha, 0 is no effect, 13 to 15 days
Method in brief: as §2

[11] = tested on: wild oat (Avena fatua); experiment: Test B pre-/postemergence plant response; settings: for Oat, Wild plant response rating (0 to 100 scale): 62 g ai/ha, 0 is no effect, 13 to 15 days
Method in brief: as §2

[12] = tested on: yellow nutsedge (Cyperus esculentus); experiment: Test B pre-/postemergence plant response; settings: for Nutsedge, Yellow plant response rating (0 to 100 scale): 62 g ai/ha, 0 is no effect, 13 to 15 days
Method in brief: as §2

[13] = tested on: downy bromegrass (Bromus tectorum); experiment: Test B pre-/postemergence plant response; settings: for Bromegrass, Downy plant response rating (0 to 100 scale): 62 g ai/ha, 0 is no effect, 13 to 15 days
Method in brief: as §2

[14] = tested on: bermudagrass (Cynodon dactylon); experiment: Test B pre-/postemergence plant response; settings: for Bermudagrass plant response rating (0 to 100 scale): 62 g ai/ha, 0 is no effect, 13 to 15 days
Method in brief: as §2

[15] = tested on: green foxtail (Setaria viridis); experiment: Test B pre-/postemergence plant response; settings: for Foxtail, Green plant response rating (0 to 100 scale): 62 g ai/ha, 0 is no effect, 13 to 15 days
Method in brief: as §2

[16] = tested on: wheat (Triticum aestivum); experiment: Test B pre-/postemergence plant response; settings: for Wheat plant response rating (0 to 100 scale): 62 g ai/ha, 0 is no effect, 13 to 15 days
Method in brief: as §2

[17] = tested on: ragweed (common ragweed, Ambrosia elatior); experiment: Test B pre-/postemergence plant response; settings: for Ragweed plant response rating (0 to 100 scale): 62 g ai/ha, 0 is no effect, 13 to 15 days
Method in brief: as §2

[18] = tested on: kochia (Kochia scoparia); experiment: Test B pre-/postemergence plant response; settings: for Kochia plant response rating (0 to 100 scale): 62 g ai/ha, 0 is no effect, 13 to 15 days
Method in brief: as §2

[19] = 31 g ai/ha, postemergence, scale 0 to 100, 0 is no effect, 100 is complete control
[20] = postemergence, 100 is complete control
[21] = Postemergence, 125 g ai/ha, visual rating after 13 to 15 days, scale 0 (no effect) to 100 (complete control)
[22] = Postemergence, 250 g ai/ha, scale 0 to 100 (0 no effect, 100 complete control)

Which results are given for `CCCc1ncc(C(=O)C2=C(O)CCCC2=O)c(=O)n1-c1cccc(C)c1` [Compound 79]?
Plant response rating, Chickweed [1, 19]: 80; Chickweed plant response rating (0 to 100 scale) [1, 20]: 95; Plant response rating, Chickweed [1, 21]: 95; Plant response rating, Chickweed [1, 22]: 98; Plant response rating, Windgrass [2, 19]: 50; Windgrass plant response rating (0 to 100 scale) [2, 20]: 65; Plant response rating, Windgrass [2, 21]: 65; Plant response rating, Windgrass [2, 22]: 90; Plant response rating, Canarygrass [3, 19]: 15; Canarygrass plant response rating (0 to 100 scale) [3, 20]: 30; Plant response rating, Canarygrass [3, 21]: 35; Plant response rating, Canarygrass [3, 22]: 50; Plant response rating, Foxtail, Giant [4, 19]: 70; Foxtail, Giant plant response rating (0 to 100 scale) [4, 20]: 75; Plant response rating, Foxtail, Giant [4, 21]: 95; Plant response rating, Foxtail, Giant [4, 22]: 95; Plant response rating, Cocklebur [5, 19]: 95; Cocklebur plant response rating (0 to 100 scale) [5, 20]: 98; Plant response rating, Cocklebur [5, 21]: 98; Plant response rating, Cocklebur [5, 22]: 98; Plant response rating, Soybean [6, 19]: 75; Soybean plant response rating (0 to 100 scale) [6, 20]: 90; Plant response rating, Soybean [6, 21]: 95; Plant response rating, Soybean [6, 22]: 98; Plant response rating, Velvetleaf [7, 19]: 95; Velvetleaf plant response rating (0 to 100 scale) [7, 20]: 98; Plant response rating, Velvetleaf [7, 21]: 98; Plant response rating, Velvetleaf [7, 22]: 100; Plant response rating, Morningglory [8, 19]: 80; Morningglory plant response rating (0 to 100 scale) [8, 20]: 95; Plant response rating, Morningglory [8, 21]: 100; Plant response rating, Morningglory [8, 22]: 100; Plant response rating, Johnsongrass [9, 19]: 0; Johnsongrass plant response rating (0 to 100 scale) [9, 20]: 65; Plant response rating, Johnsongrass [9, 21]: 70; Plant response rating, Johnsongrass [9, 22]: 75; Plant response rating, Blackgrass [10, 19]: 5; Blackgrass plant response rating (0 to 100 scale) [10, 20]: 15; Plant response rating, Blackgrass [10, 21]: 30; Plant response rating, Blackgrass [10, 22]: 45; Plant response rating, Oat, Wild [11, 19]: 40; Oat, Wild plant response rating (0 to 100 scale) [11, 20]: 45; Plant response rating, Oat, Wild [11, 21]: 60; Plant response rating, Oat, Wild [11, 22]: 75; Plant response rating, Nutsedge, Yellow [12, 19]: 25; Nutsedge, Yellow plant response rating (0 to 100 scale) [12, 20]: 60; Plant response rating, Nutsedge, Yellow [12, 21]: 70; Plant response rating, Nutsedge, Yellow [12, 22]: 80; Plant response rating, Bromegrass, Downy [13, 19]: 5; Bromegrass, Downy plant response rating (0 to 100 scale) [13, 20]: 10; Plant response rating, Bromegrass, Downy [13, 21]: 30; Plant response rating, Bromegrass, Downy [13, 22]: 65; Plant response rating, Bermudagrass [14, 19]: 80; Bermudagrass plant response rating (0 to 100 scale) [14, 20]: 80; Plant response rating, Bermudagrass [14, 21]: 85; Plant response rating, Bermudagrass [14, 22]: 85; Plant response rating, Foxtail, Green [15, 19]: 60; Foxtail, Green plant response rating (0 to 100 scale) [15, 20]: 60; Plant response rating, Foxtail, Green [15, 21]: 80; Plant response rating, Foxtail, Green [15, 22]: 98; Plant response rating, Wheat [16, 19]: 10; Wheat plant response rating (0 to 100 scale) [16, 20]: 25; Plant response rating, Wheat [16, 21]: 35; Plant response rating, Wheat [16, 22]: 40; Plant response rating, Ragweed [17, 19]: 80; Ragweed plant response rating (0 to 100 scale) [17, 20]: 85; Plant response rating, Ragweed [17, 21]: 95; Plant response rating, Ragweed [17, 22]: 98; Plant response rating, Kochia [18, 19]: 75; Kochia plant response rating (0 to 100 scale) [18, 20]: 75; Plant response rating, Kochia [18, 21]: 75; Plant response rating, Kochia [18, 22]: 80

Which results are given for `O=C1CCCC(O)=C1C(=O)c1cnc(-c2ccc(Br)cc2)n(-c2ccccc2)c1=O` [Compound 70]?
Plant response rating, Chickweed [1, 19]: 80; Chickweed plant response rating (0 to 100 scale) [1, 20]: 90; Plant response rating, Chickweed [1, 21]: 98; Plant response rating, Chickweed [1, 22]: 100; Plant response rating, Windgrass [2, 19]: 80; Windgrass plant response rating (0 to 100 scale) [2, 20]: 85; Plant response rating, Windgrass [2, 21]: 90; Plant response rating, Windgrass [2, 22]: 100; Plant response rating, Canarygrass [3, 19]: 50; Canarygrass plant response rating (0 to 100 scale) [3, 20]: 80; Plant response rating, Canarygrass [3, 21]: 85; Plant response rating, Canarygrass [3, 22]: 98; Plant response rating, Foxtail, Giant [4, 19]: 75; Foxtail, Giant plant response rating (0 to 100 scale) [4, 20]: 85; Plant response rating, Foxtail, Giant [4, 21]: 95; Plant response rating, Foxtail, Giant [4, 22]: 98; Plant response rating, Cocklebur [5, 19]: 0; Cocklebur plant response rating (0 to 100 scale) [5, 20]: 0; Plant response rating, Cocklebur [5, 21]: 40; Plant response rating, Cocklebur [5, 22]: 40; Plant response rating, Soybean [6, 19]: 75; Soybean plant response rating (0 to 100 scale) [6, 20]: 75; Plant response rating, Soybean [6, 21]: 95; Plant response rating, Soybean [6, 22]: 98; Plant response rating, Velvetleaf [7, 19]: 75; Velvetleaf plant response rating (0 to 100 scale) [7, 20]: 80; Plant response rating, Velvetleaf [7, 21]: 100; Plant response rating, Velvetleaf [7, 22]: 100; Plant response rating, Morningglory [8, 19]: 98; Morningglory plant response rating (0 to 100 scale) [8, 20]: 100; Plant response rating, Morningglory [8, 21]: 100; Plant response rating, Morningglory [8, 22]: 100; Plant response rating, Johnsongrass [9, 19]: 65; Johnsongrass plant response rating (0 to 100 scale) [9, 20]: 70; Plant response rating, Johnsongrass [9, 21]: 80; Plant response rating, Johnsongrass [9, 22]: 98; Plant response rating, Blackgrass [10, 19]: 30; Blackgrass plant response rating (0 to 100 scale) [10, 20]: 35; Plant response rating, Blackgrass [10, 21]: 35; Plant response rating, Blackgrass [10, 22]: 50; Plant response rating, Oat, Wild [11, 19]: 55; Oat, Wild plant response rating (0 to 100 scale) [11, 20]: 70; Plant response rating, Oat, Wild [11, 21]: 90; Plant response rating, Oat, Wild [11, 22]: 95; Plant response rating, Nutsedge, Yellow [12, 19]: 10; Nutsedge, Yellow plant response rating (0 to 100 scale) [12, 20]: 15; Plant response rating, Nutsedge, Yellow [12, 21]: 40; Plant response rating, Nutsedge, Yellow [12, 22]: 60; Plant response rating, Bromegrass, Downy [13, 19]: 10; Bromegrass, Downy plant response rating (0 to 100 scale) [13, 20]: 50; Plant response rating, Bromegrass, Downy [13, 21]: 70; Plant response rating, Bromegrass, Downy [13, 22]: 70; Plant response rating, Bermudagrass [14, 19]: 75; Bermudagrass plant response rating (0 to 100 scale) [14, 20]: 85; Plant response rating, Bermudagrass [14, 21]: 95; Plant response rating, Bermudagrass [14, 22]: 98; Plant response rating, Foxtail, Green [15, 19]: 80; Foxtail, Green plant response rating (0 to 100 scale) [15, 20]: 85; Plant response rating, Foxtail, Green [15, 21]: 98; Plant response rating, Foxtail, Green [15, 22]: 98; Plant response rating, Wheat [16, 19]: 5; Wheat plant response rating (0 to 100 scale) [16, 20]: 20; Plant response rating, Wheat [16, 21]: 35; Plant response rating, Wheat [16, 22]: 35; Plant response rating, Ragweed [17, 19]: 60; Ragweed plant response rating (0 to 100 scale) [17, 20]: 70; Plant response rating, Ragweed [17, 21]: 75; Plant response rating, Ragweed [17, 22]: 80; Plant response rating, Kochia [18, 19]: 65; Kochia plant response rating (0 to 100 scale) [18, 20]: 65; Plant response rating, Kochia [18, 21]: 75; Plant response rating, Kochia [18, 22]: 98
